According to patent publication US5776892A, “Anti-inflammatory peptides” (Curative Health Services, Inc., priority 1994, dated 1998):
No end group written: not given here.

Test system: arachidonic acid induced inflammation in mouse ear
Test: Mouse ear model, arachidonic acid (AA) induced inflammation, ear thickness
Assay type: in vivo
Experimental: The anti-inflammatory properties of CT-112 (SEQ. ID NO: 1) were assessed using a standardized assay for anti-inflammatory activity, i.e., the mouse ear model in which arachidonic acid (AA) is used to induce an inflammatory reaction (Young et al., 1984, J. Invest. Dermatol. 82:367-371; Doherty, et al., 1988, J. Invest. Dermatol. 91:298-302).
Female mice (C57BL/6UAF, Charles River Breeding Laboratories, approximately 15-18 g) were obtained and acclimated for 2 weeks prior to use. The animals were approximately 14 weeks old at the start of the study.
To prepare minipumps for implantation, CT-112 (SEQ. ID NO: 1) was dissolved in PBS. The material was loaded into Alzet minipumps set to deliver 0.05 (5 animals), 0.1 (10 animals), 1 (10 animals), or 2.5 (5 animals) mg of CT-112 (SEQ. ID NO: 1) per animal per day. Minipumps for implantation into control animals contained only PBS. As a positive control, one set of 10 mice received 100 mg/kg of phenidone, a potent 5-lipoxygenase inhibitor which acts as an anti-inflammatory agent, 15 min prior to challenge with AA.
For subcutaneous implantation of minipumps, animals were anesthetized with Ketamine/Xylazine. The Ketamine (Aveco Lot #440140) was injected at 80 mg/kg and the Xylazine (Rugby Laboratories Lot #26040-B) at 16 mg/kg and the Alzet pumps were implanted subcutaneously in the dorsothoracic area. Animals were allowed to recover and then housed and given food and water ad libitum for 5 days.
On the sixth day following pump implantation, 0.01 ml of AA was applied to the inner and outer surfaces of the right ear by means of an automatic microliter pipette. One hr following AA application, the mice were sacrificed and ear thickness was measured with a Mitutoyo No. 7300 Gauge Caliper. The left ears were also measured as an internal control.
Mice were implanted with Alzet mini-pumps set to deliver 60 mg/kg/day for either 7, 3, or 1 days. A separate group of 5 mice received 3 intraperitoneal injections of CT-112 (60 mg/kg/injection) at 24, 1 and 0.25 hr prior to AA challenge. CT-112 (SEQ. ID NO: 1) was prepared for injection by dissolving the compound in Dulbecco's PBS to give a final CT-112 (SEQ. ID NO: 1) concentration of 5 mg/ml. The control mice were implanted with Alzet minipumps that delivered PBS for 7 days. The AA challenge was the same as described supra in Example 7.
Administration of CT-112 (SEQ. ID NO: 1) (60 mg/kg/injection) via multiple intraperitoneal injections was performed at the following times prior to AA challenge:
In addition, the effect of a single administration of CT-112 (SEQ. ID NO: 1) (60 mg/kg) by intraperitoneal injection was performed at either 1 or 3 hr prior to AA challenge. Control mice had Alzet minipumps implanted to deliver PBS for 7 days prior to AA challenge. The AA challenge was the same as described supra in Example 7. The results of the multiple dosing regimens and the 1 hr and 3 hr single dosing regimens were compared to the anti-inflammatory activity of CT-112 (SEQ. ID NO: 1) delivered via Alzet minipump set to deliver 60 mg/kg/day for 7 days using 5 animals per treatment.
In a separate experiment, the effect of multiple intraperitoneal injections of CT-112 (SEQ. ID NO: 1) at either 6, 3, 1 and 0.25 hr, or 16, 3, 1 and 0.25 hr prior to AA challenge was assessed. The results of both multi-dosing regimens were compared to both phenidone (100 mg/kg administered 15 min prior to AA challenge) and CT-112 (SEQ. ID NO: 1) administered via Alzet mini-pump (60 mg/kg/day for 7 days). For this latter study, the number of animals receiving the single injection of CT-112 (SEQ. ID NO: 1) was increased from 5 to 10.
Administration to mice of CT-112 (SEQ. ID NO: 1) (60 mg/kg/injection) via multiple subcutaneous injections prior to AA challenge was performed at:
In addition, other mice received only a single subcutaneous injection of CT-112 (SEQ. ID NO: 1) (60 mg/kg) at either 3 or 1 hr prior to AA challenge. […]

| Molecule | % Reduction of Ear Swelling (Table I, phenidone 100 mg/kg, 15 min prior to AA) | % Inhibition (Table XII, 60 mg/kg/day via Alzet pump for 24 hr) | Thickness Difference (Left-Right) (Table XIII, 60 mg/kg/day via Alzet pump for 24 hr) |
| --- | --- | --- | --- |
| O=C1CCN(c2ccccc2)N1 [Phenidone, reference compound] | 84.1% | – | – |
| TTSHVKPQ [CT-135, ID; NO; 20] | – | 73% | 0.00178 ± 0.00073 in |
